In patent publication US4130645A (priority 1978, dated 1978):
“And” between values parts separate entries of the source, which are not always exact repeats. Equal entries are not always repeated. Structures can show the parent of a compound that is named as a salt.

tested on: not listed separately; assay: Thermal decomposition point (Differential Thermal Analyzer); assay type: physicochemical; conditions: 20° C./min, onset method
Method: By the procedure of Examples 2 and 5 the following novel salts of 2,3,5,6-tetrachloro-N-nitroaniline are prepared as listed in Table II below. The melting points (uncorrected) of said salts are determined on a Thomas Hoover Capillary Melting Point Apparatus; while the thermal decomposition points of said salts are determined on a Dupont 900 Differential Thermal Analyzer. […] Decompositions are recorded by an exothermic response and the temperatures given in Table II below are assessed by the "onset method".

Row | Compound | Thermal Decomposition Point
1 | O=[N+]([O-])Nc1c(Cl)c(Cl)cc(Cl)c1Cl [K] | 272 °C
2 | O=[N+]([O-])Nc1c(Cl)c(Cl)cc(Cl)c1Cl [NH2 (C3 H7)2] | 204 °C
3 | O=[N+]([O-])Nc1c(Cl)c(Cl)cc(Cl)c1Cl [NH2 (C4 H9)2] | 207 °C
4 | O=[N+]([O-])Nc1c(Cl)c(Cl)cc(Cl)c1Cl [NH2 (C18 H37)2] | 168 °C
5 | O=[N+]([O-])Nc1c(Cl)c(Cl)cc(Cl)c1Cl [NH2 (CH2 CH2 OH)2] | 173 °C and 177 °C
6 | O=[N+]([O-])Nc1c(Cl)c(Cl)cc(Cl)c1Cl [NH2 (CH2C6 H5)2, dibenzylamine salt of 2,3,5,6-tetrachloro-N-nitroaniline] | 183 °C
7 | O=[N+]([O-])Nc1c(Cl)c(Cl)cc(Cl)c1Cl [NH3 (CH2)3 NHC12 H25 -n] | 184 °C

tested on: Erysiphe graminis f. sp. hordei; assay: whole plant or invertebrate; assay type: in vivo; conditions: Blumeria graminis, in Hordeum vulgare, foliar, read-out: Barley Powdery Mildew Percent Disease Control

Row | Compound | pest or weed control at 500 ppm | pest or weed control at 200 ppm | pest or weed control at 50 ppm | pest or weed control at 100 ppm
8 | O=[N+]([O-])Nc1cccc(C(F)(F)F)c1 | 96% | – | – | –
9 | N#Cc1ccc(N[N+](=O)[O-])c(Br)c1 | 100% | – | – | –
10 | CCc1cccc(CC)c1N[N+](=O)[O-] | 100% | – | – | –
11 | CN(c1c(Br)cccc1Br)[N+](=O)[O-] | 89% | – | – | –
12 | CC(C)OC(=O)Nc1cc(Cl)c(N[N+](=O)[O-])c(Cl)c1 | – | 97% | – | –
13 | CCN(c1c(Br)cccc1Br)[N+](=O)[O-] | 89% | – | – | –
14 | O=[N+]([O-])N(Cc1ccccc1)c1c(Br)cccc1Br | 100% | – | – | –
15 | CC(C)N(c1c(Br)cccc1Br)[N+](=O)[O-] | 100% | – | – | –
16 | CN(c1c(Cl)c(Cl)cc(Cl)c1Cl)[N+](=O)[O-] | 100% | – | – | –
17 | O=[N+]([O-])Nc1cc(Cl)c(Cl)c(Cl)c1Cl | 84% | – | – | –
18 | O=[N+]([O-])Nc1ccc(C(F)(F)F)cc1 [drawing 84] | 96% | 91% | 84% | 95%
19 | O=[N+]([O-])Nc1c(Cl)c(Cl)cc(Cl)c1Cl [drawing 87] | 84% | – | 48% | –
20 | O=[N+]([O-])Nc1cccc(Cl)c1Cl [drawing 89] | 100% | – | – | –
21 | O=[N+]([O-])Nc1ccc(Cl)cc1Cl [drawing 90] | 100% | – | – | –
22 | O=[N+]([O-])Nc1c(Cl)cccc1Cl [drawing 91] | 100% | – | – | –
23 | CS(=O)(=O)c1ccc(N[N+](=O)[O-])cc1 [drawing 93] | 100% | – | – | –
24 | O=[N+]([O-])Nc1cccc(Br)c1 [drawing 99] | 96% | – | – | –
25 | Cc1cc([N+](=O)[O-])cc(C)c1N[N+](=O)[O-] [drawing 101] | 100% | – | – | –
26 | O=[N+]([O-])Nc1c(Br)cc(C(F)(F)F)cc1Br [drawing 102] | 100% | 83% | – | –
27 | CC(=O)Nc1cc(Cl)c(N[N+](=O)[O-])c(Cl)c1 [drawing 107] | 84% | – | – | –
28 | CCC(=O)Nc1cc(Cl)c(N[N+](=O)[O-])c(Cl)c1 [drawing 108] | 100% | – | – | –
29 | CC(=O)N(c1c(Cl)c(Cl)cc(Cl)c1Cl)[N+](=O)[O-] [drawing 121] | 100% | 95% | 95% | 95%
30 | COC(=O)CN(c1c(Cl)c(Cl)cc(Cl)c1Cl)[N+](=O)[O-] [drawing 122] | 84% | – | – | –

same assay, conditions: in vivo

Row | Compound | Barley Powdery Mildew Percent Disease Control
31 | O=[N+]([O-])Nc1c(Cl)c(Cl)cc(Cl)c1Cl [drawing 87] | 71%
32 | O=[N+]([O-])Nc1c(Cl)c(Cl)cc(Cl)c1Cl [drawing 100] | 100% and 95%
33 | CCC(=O)Nc1cc(Cl)c(N[N+](=O)[O-])c(Cl)c1 [drawing 112] | 89%
34 | O=[N+]([O-])Nc1c(Cl)c(Cl)cc(Cl)c1Cl [drawing 118] | 100%
35 | O=[N+]([O-])Nc1c(Cl)c(Cl)cc(Cl)c1Cl [drawing 123] | 98% and 96%
